From BigSolDB 2.1

CC(=O)c1c(C)c([N+](=O)[O-])c(C(C)(C)C)c([N+](=O)[O-])c1C
solubility (mole fraction)
Conditions | 278.15 K | 283.15 K | 288.15 K | 293.15 K | 298.15 K | 303.15 K | 308.15 K | 313.15 K | 318.15 K
in DMAc | 0.113 | 0.129 | 0.147 | 0.165 | 0.185 | 0.206 | 0.228 | 0.252 | 0.278
in DMF | 0.0732 | 0.0856 | 0.0993 | 0.115 | 0.131 | 0.149 | 0.169 | 0.191 | 0.215
in THF | 0.148 | 0.165 | 0.183 | 0.202 | 0.221 | 0.243 | 0.266 | 0.288 | 0.313
in acetonitrile | 0.0141 | 0.0174 | 0.0213 | 0.0259 | 0.0314 | 0.0379 | 0.0455 | 0.0545 | 0.0644
in cyclohexane | 0.00275 | 0.00348 | 0.00439 | 0.00547 | 0.0068 | 0.00853 | 0.0104 | 0.0127 | 0.0153
in ethanol | 0.00201 | 0.00251 | 0.00304 | 0.00364 | 0.00435 | 0.00521 | 0.00622 | 0.00743 | 0.00869
in ethyl acetate | 0.065 | 0.0744 | 0.0846 | 0.0959 | 0.108 | 0.121 | 0.136 | 0.151 | 0.168
in isopropanol | 0.00159 | 0.002 | 0.00259 | 0.00332 | 0.00414 | 0.00521 | 0.00651 | 0.008 | 0.00982
in methanol | 0.00127 | 0.00155 | 0.00188 | 0.00227 | 0.00272 | 0.00324 | 0.00385 | 0.00455 | 0.00533
in n-butanol | 0.00299 | 0.0037 | 0.00455 | 0.00557 | 0.00679 | 0.00823 | 0.00993 | 0.0119 | 0.0141
in n-heptane | 0.00184 | 0.00228 | 0.00281 | 0.00344 | 0.00419 | 0.00508 | 0.00613 | 0.00737 | 0.00878
in n-hexane | 0.00164 | 0.00202 | 0.00248 | 0.00302 | 0.00365 | 0.0044 | 0.00527 | 0.00629 | 0.00744
